Read-outs that look alike come from different tables or passages of the source.
Columns and labels:
Hsp90 in HEPG2 lysate = conditions: for FP signal: raw
[1] = target: T1, Hsp90 in C. albicans (SC5314) lysate (Candida albicans, UniProt P46598); experiment: biochemical; type: binding; conditions: for FP signal: raw
T1 construct: endogenous in cells; host or cells: C. albicans SC5314 whole-cell lysate

[2] = SC5314 lysate, 0.457 nM compound
[3] = SC5314 lysate, 1.372 nM compound
[4] = SC5314 lysate, 4.115 nM compound
[5] = SC5314 lysate, 12.346 nM compound
[6] = SC5314 lysate, 37.037 nM compound
[7] = SC5314 lysate, 111.111 nM compound
[8] = SC5314 lysate, 333.333 nM compound
[9] = SC5314 lysate, 1000 nM compound
[10] = SC5314 lysate, 3000 nM compound

T1 sequence (P46598 whole entry): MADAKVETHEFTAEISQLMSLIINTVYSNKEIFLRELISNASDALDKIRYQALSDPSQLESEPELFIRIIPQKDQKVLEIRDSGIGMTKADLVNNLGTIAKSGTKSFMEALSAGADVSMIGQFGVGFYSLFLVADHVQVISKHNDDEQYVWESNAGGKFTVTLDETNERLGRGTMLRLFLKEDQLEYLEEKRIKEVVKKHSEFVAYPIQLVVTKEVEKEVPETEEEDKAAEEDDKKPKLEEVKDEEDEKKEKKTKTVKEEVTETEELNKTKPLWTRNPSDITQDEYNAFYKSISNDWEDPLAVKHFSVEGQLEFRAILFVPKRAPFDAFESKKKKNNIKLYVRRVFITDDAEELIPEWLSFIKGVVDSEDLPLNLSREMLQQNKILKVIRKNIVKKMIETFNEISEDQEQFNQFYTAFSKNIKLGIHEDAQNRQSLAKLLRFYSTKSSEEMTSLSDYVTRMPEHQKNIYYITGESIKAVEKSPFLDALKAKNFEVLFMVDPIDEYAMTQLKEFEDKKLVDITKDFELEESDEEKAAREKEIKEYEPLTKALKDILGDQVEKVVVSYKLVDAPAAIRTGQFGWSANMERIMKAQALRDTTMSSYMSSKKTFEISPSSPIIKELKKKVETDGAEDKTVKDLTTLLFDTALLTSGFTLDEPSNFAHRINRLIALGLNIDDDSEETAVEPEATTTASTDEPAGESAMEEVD

Question: How did the EC50 (Hsp90 in HEPG2 lysate; read-out: FP EC50, Human lysate, rounded summary) turn out when `CC1(C)CC(=O)c2c(C(F)(F)F)nn(-c3ccc(C(N)=O)c(N[C@H]4CC[C@H](O)CC4)c3)c2C1` [SNX] was run?
Answer: 0.0401 µM

Question: With `CC1CC2OC2C=CC=CC(=NOCc2cccc(F)c2)Cc2c(Cl)c(O)cc(O)c2C(=O)O1` (mixture of isomers) [compound 227] as the compound, how does the “Ratio re. GdA” value ([1]; EC50 relative to GdA, SC5314 lysate) read?
Answer: 21.164

Question: What about the “FP signal (raw)” value ([1]; SC5314 lysate, 0.457 nM) of the same compound?
Answer: 194

Question: And the “FP signal relative to 0 nM” value [1, 2]?
Answer: 0.9652

Question: And the FP signal [1, 2]?
Answer: 194

Question: What about the “FP signal (raw)” value ([1]; SC5314 lysate, 1.372 nM) of the same compound?
Answer: 195

Question: And the “FP signal relative to 0 nM” value [1, 3]?
Answer: 0.9701

Question: What about the FP signal [1, 3] of the same compound?
Answer: 195

Question: And the “FP signal (raw)” value ([1]; SC5314 lysate, 4.115 nM)?
Answer: 190

Question: And the “FP signal relative to 0 nM” value [1, 4]?
Answer: 0.9453

Question: And the FP signal [1, 4]?
Answer: 190

Question: What about the “FP signal (raw)” value ([1]; SC5314 lysate, 12.346 nM) of the same compound?
Answer: 193

Question: And the “FP signal relative to 0 nM” value [1, 5]?
Answer: 0.9602

Question: And the FP signal [1, 5]?
Answer: 193

Question: What about the “FP signal (raw)” value ([1]; SC5314 lysate, 37.037 nM) of the same compound?
Answer: 178

Question: And the “FP signal relative to 0 nM” value [1, 6]?
Answer: 0.8856

Question: What about the FP signal [1, 6] of the same compound?
Answer: 178

Question: What about the “FP signal (raw)” value ([1]; SC5314 lysate, 111.111 nM) of the same compound?
Answer: 162

Question: And the “FP signal relative to 0 nM” value [1, 7]?
Answer: 0.806

Question: What about the FP signal [1, 7] of the same compound?
Answer: 162

Question: What about the “FP signal (raw)” value ([1]; SC5314 lysate, 333.333 nM) of the same compound?
Answer: 111

Question: What about the “FP signal relative to 0 nM” value [1, 8] of the same compound?
Answer: 0.5522

Question: And the FP signal [1, 8]?
Answer: 111

Question: And the “FP signal (raw)” value ([1]; SC5314 lysate, 1000 nM)?
Answer: 56

Question: And the “FP signal relative to 0 nM” value [1, 9]?
Answer: 0.2786

Question: And the FP signal [1, 9]?
Answer: 56

Question: What about the “FP signal (raw)” value ([1]; SC5314 lysate, 3000 nM) of the same compound?
Answer: 32

Question: What about the “FP signal relative to 0 nM” value [1, 10] of the same compound?
Answer: 0.1592

Question: And the FP signal [1, 10]?
Answer: 32

Question: What about the EC50 ([1]; SC5314 lysate, not normalized, oxime panel experiment 220817, read-out: EC50) of the same compound?
Answer: 0.36 µM

Question: What about the HepG2/SC5314 ([1]; ratio of GdA-normalized EC50s, human over fungal lysate) of the same compound?
Answer: 1.415

Question: What about the HepG2/SC5314 ([1]; ratio of GdA-relative EC50 ratios, HepG2 over SC5314) of the same compound?
Answer: 1.415

Question: What about the “Ratio rel. GdA (HepG2)” value (Hsp90 in HEPG2 lysate; EC50 / EC50 of GdA in HepG2 lysate) of the same compound?
Answer: 29.9414

Question: What about the “Ratio rel. GdA (HepG2)” value (Hsp90 in HEPG2 lysate; EC50 relative to GdA, HEPG2 lysate) of the same compound?
Answer: 29.9414

Question: What about the “FP signal, Fxn Control” value (Hsp90 in HEPG2 lysate; HEPG2 lysate, log concentration 0.137354 (1.372 nM)) of the same compound?
Answer: 0.976

Question: What about the “FP signal, Fxn Control” value (Hsp90 in HEPG2 lysate; HEPG2 lysate, log concentration 0.61437 (4.115 nM)) of the same compound?
Answer: 0.9615

Question: And the “FP signal, Fxn Control” value (Hsp90 in HEPG2 lysate; HEPG2 lysate, log concentration 1.09153 (12.346 nM))?
Answer: 0.9712

Question: And the “FP signal, Fxn Control” value (Hsp90 in HEPG2 lysate; HEPG2 lysate, log concentration 1.56864 (37.037 nM))?
Answer: 0.9519

Question: And the “FP signal, Fxn Control” value (Hsp90 in HEPG2 lysate; HEPG2 lysate, log concentration 2.04576 (111.111 nM))?
Answer: 0.9038

Question: And the “FP signal, Fxn Control” value (Hsp90 in HEPG2 lysate; HEPG2 lysate, log concentration 2.52288 (333.333 nM))?
Answer: 0.7933

Question: What about the “FP signal, Fxn Control” value (Hsp90 in HEPG2 lysate; HEPG2 lysate, log concentration 3 (1000 nM)) of the same compound?
Answer: 0.399

Question: And the “FP signal, Fxn Control” value (Hsp90 in HEPG2 lysate; HEPG2 lysate, log concentration 3.47712 (3000 nM))?
Answer: 0.1923

Question: What about the “FP signal, Fxn Control” value (Hsp90 in HEPG2 lysate; HEPG2 lysate, log concentration -0.340084 (0.457 nM)) of the same compound?
Answer: 0.976

Question: What about the “FP signal (raw)” value (Hsp90 in HEPG2 lysate; HepG2 lysate, 0.457 nM) of the same compound?
Answer: 203

Question: What about the FP signal (Hsp90 in HEPG2 lysate; HepG2 lysate, 0.457 nM compound) of the same compound?
Answer: 203

Question: What about the “FP signal (raw)” value (Hsp90 in HEPG2 lysate; HepG2 lysate, 1.372 nM) of the same compound?
Answer: 203

Question: And the FP signal (Hsp90 in HEPG2 lysate; HepG2 lysate, 1.372 nM compound)?
Answer: 203

Question: What about the “FP signal (raw)” value (Hsp90 in HEPG2 lysate; HepG2 lysate, 4.115 nM) of the same compound?
Answer: 200

Question: And the FP signal (Hsp90 in HEPG2 lysate; HepG2 lysate, 4.115 nM compound)?
Answer: 200

Question: And the “FP signal (raw)” value (Hsp90 in HEPG2 lysate; HepG2 lysate, 12.346 nM)?
Answer: 202

Question: What about the FP signal (Hsp90 in HEPG2 lysate; HepG2 lysate, 12.346 nM compound) of the same compound?
Answer: 202

Question: What about the “FP signal (raw)” value (Hsp90 in HEPG2 lysate; HepG2 lysate, 37.037 nM) of the same compound?
Answer: 198

Question: What about the FP signal (Hsp90 in HEPG2 lysate; HepG2 lysate, 37.037 nM compound) of the same compound?
Answer: 198

Question: And the “FP signal (raw)” value (Hsp90 in HEPG2 lysate; HepG2 lysate, 111.111 nM)?
Answer: 188

Question: And the FP signal (Hsp90 in HEPG2 lysate; HepG2 lysate, 111.111 nM compound)?
Answer: 188

Question: What about the “FP signal (raw)” value (Hsp90 in HEPG2 lysate; HepG2 lysate, 333.333 nM) of the same compound?
Answer: 165

Question: And the FP signal (Hsp90 in HEPG2 lysate; HepG2 lysate, 333.333 nM compound)?
Answer: 165

Question: And the “FP signal (raw)” value (Hsp90 in HEPG2 lysate; HepG2 lysate, 1000 nM)?
Answer: 83

Question: What about the FP signal (Hsp90 in HEPG2 lysate; HepG2 lysate, 1000 nM compound) of the same compound?
Answer: 83

Question: And the “FP signal (raw)” value (Hsp90 in HEPG2 lysate; HepG2 lysate, 3000 nM)?
Answer: 40

Question: And the FP signal (Hsp90 in HEPG2 lysate; HepG2 lysate, 3000 nM compound)?
Answer: 40

Question: What about the EC50 (Hsp90 in HEPG2 lysate; HepG2 lysate, oxime panel experiment 220817) of the same compound?
Answer: 0.664 µM
